We go through 2 molecules from patent US20230190643A1, “IMPLANT FOR TREATMENT OF AN OCULAR CONDITION” (Allergan, Inc., priority 2015, published 2023).

What is called Ki is a measure of affinity in units of concentration, obtained from inhibition or displacement.

Molecules are shown by their SMILES.

In one data set the target is T1, GC receptor (Homo sapiens, UniProt P04150).
T1 sequence (P04150 1-777): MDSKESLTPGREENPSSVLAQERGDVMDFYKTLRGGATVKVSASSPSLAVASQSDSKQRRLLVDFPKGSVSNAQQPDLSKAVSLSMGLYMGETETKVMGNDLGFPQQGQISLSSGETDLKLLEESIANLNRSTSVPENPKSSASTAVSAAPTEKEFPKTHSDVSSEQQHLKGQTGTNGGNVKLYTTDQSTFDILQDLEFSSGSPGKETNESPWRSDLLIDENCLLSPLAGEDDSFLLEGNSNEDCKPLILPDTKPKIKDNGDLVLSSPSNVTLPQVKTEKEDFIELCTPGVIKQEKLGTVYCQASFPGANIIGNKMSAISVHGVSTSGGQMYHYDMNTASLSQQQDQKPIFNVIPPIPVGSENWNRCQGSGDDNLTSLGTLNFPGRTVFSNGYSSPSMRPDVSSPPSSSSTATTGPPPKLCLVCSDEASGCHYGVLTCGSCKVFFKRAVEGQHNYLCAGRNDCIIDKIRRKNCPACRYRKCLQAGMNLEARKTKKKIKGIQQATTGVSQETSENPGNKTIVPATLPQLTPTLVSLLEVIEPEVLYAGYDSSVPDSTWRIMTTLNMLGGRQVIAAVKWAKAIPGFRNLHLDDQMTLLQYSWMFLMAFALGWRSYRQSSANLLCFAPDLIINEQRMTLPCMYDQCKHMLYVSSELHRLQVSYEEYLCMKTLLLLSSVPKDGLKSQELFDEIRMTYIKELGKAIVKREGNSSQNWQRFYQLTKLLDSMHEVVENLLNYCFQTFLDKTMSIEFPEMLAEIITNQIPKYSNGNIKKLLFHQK
The note with it: GC receptor-binding (Tajika 2011b); cited from earlier work.

The test system of another data set is CHL/IU. Particulars: cited from earlier work.
For the next data set, the system named is Ames test. The note with it: cited from earlier work.
The subject of a further data set is rabbits. Particulars: subcutaneous during organogenesis, cited from earlier work.
Another data set relates to male and female rats. The note with it: subcutaneous up to 10 μg/kg/day prior to and during mating; cited from earlier work.
For another data set, the system named is mice. The note with it: cited from earlier work.
Data set [1] can be described thus: Impact of gamma irradiation (46 kGy) on difluprednate assay of implant formulations. The format is physicochemical. The protocol: Terminal moist heat sterilization is not a viable method due to the fact that ENV905 is a solid dosage form designed to disintegrate in aqueous environments. Therefore, studies to evaluate gamma irradiation were conducted on early ENV905 formulations to determine if ionizing radiation was a viable option for a terminally sterilized drug product. ENV905 implants were exposed to gamma irradiation with a dose of 46 kGy per ISO 11137-2:2012 (Sterilization of Health Care Products—Radiation—Part 2: Establishing the Sterilization Dose). The implant formulations used for these studies consisted of a blend of difluprednate and PEGs.
Implants were individually packaged in HPLC vials with air headspace and polytetrafluoroethylene (PTFE)-lined screw caps. Ten individual implants (n=10) were tested for difluprednate assay.

The subject of the next data set is rodents and non-rodents. The note with it: consistent between species; cited from earlier work.

On to `CCCC(=O)O[C@]1(C(=O)CO)CC[C@H]2[C@@H]3C[C@H](F)C4=CC(=O)C=C[C@]4(C)[C@@]3(F)[C@@H](O)C[C@@]21C` [Desacetyl Difluprednate (DFB), 6α,9-difluoroprednisolone 17-butyrate], for which the Ki at GC receptor is 0.061 nM.

For the molecule `CCCC(=O)O[C@]1(C(=O)COC(C)=O)CC[C@H]2[C@@H]3C[C@H](F)C4=CC(=O)C=C[C@]4(C)[C@@]3(F)[C@@H](O)C[C@@]21C` [Difluprednate (DFBA), Difluprednate], the “genotoxicity in cultured mammalian cells CHL/IU” value in the data set on CHL/IU is “not genotoxic”. In addition, the “genotoxicity in vitro in the Ames test” value in the data set on Ames test is “not genotoxic”. For the same molecule, on GC receptor, the Ki is 0.78 nM. For the same molecule, the embryotoxicity and teratogenicity entry in the data set on rabbits (1-10 μg/kg/day) is “embryotoxic (decrease in embryonic body weight and a delay in embryonic ossification) and teratogenic (cleft palate and skeletal anomalies)”. Moreover, in the data set with rabbits, the “NOEL for embryotoxic and teratogenic effects” value is 1 µg/kg/day; the teratogenic dose was 10 µg/kg/day. The fertility entry with male and female rats is recorded as “did not impair fertility in either gender”. Also, the “in vivo micronucleus test” value in the data set on mice is recorded as “negative”. Moreover, in data set [1] (Radiation Dose 46 kGy), the Degradation worked out at 0.85 % Area and the “Difluprednate Assay” value is given as 97.13 % Area. Also, in data set [1] (Radiation Dose None), the “Difluprednate Assay” value is listed as 97.98 % Area. Further, the “no-observed-effect-level (NOEL), subchronic and chronic toxicity tests” value in the data set with rodents and non-rodents was 1 to 1.25 µg/kg/day.
